Source: patent US9238658B2, “Substituted piperidinyl-carboxamide derivatives useful as SCD 1 inhibitors” (Janssen Pharmaceutica NV, priority 2011, dated 2016)
Several values for one entry are separate records, joined by “and”; a condition that tells them apart may be missing. Equal values may be shown once.

Tests used:
SCD1 [1] = target: T1, SCD1 (Homo sapiens (Human), UniProt O00767); assay: SCD1 14C-palmitate assay in A431 cells; type: cell-based; settings: read-out: A431 cells 14C-PA IC50
Protocol: Human epithelial carcinoma A431 cells were seeded at 400,000 cells per well in 48-well tissue culture plate and treated with 2 cycles of fasting in low glucose medium (DMEM, Cellgro #10-014-CV, 1 g/L glucose, 2% Charcoal Filtered FBS) for 24 hours; and re-feeding with high glucose medium for 24 hours (DMEM, Cellgro #10-013-CM, 4.5 g/L glucose, 10% Charcoal Filtered FBS and 0.05 mg/mL Lilly Humulin R, Cat.#, HI-210). Prior to running the assay, the cells were washed twice with high glucose medium (400 μL), followed by addition of 250 μL assay buffer (DMEM, 4.5 g/L glucose, 0.05 mg/mL Human Insulin, 0.1% Fatty Acid Free BSA) to each well. Then, 100 μL of assay buffer containing 20 μM Palmitic Acid, 0.05 μCi ^14C Palmitic Acid (Perkin Elmer, NEC075H) and test compound (at selected concentration) was added to each well. The cells were then Incubated at 37° C. and 5% CO2 tissue culture incubator for 4 hours, followed by extensive washes with pre-chilled PBS. The cell plates were then frozen at −20° C. overnight. After thawing out the plates, 100 μL of 1N KOH was added to each well and the plates were incubated at 37° C. for 30 mins. Cell lysates were transferred to 1 mL Eppendorf tubes and incubated at 95° C. for 1 hour, followed by addition of 10 μL formic acid and 220 μL acetonitrile. The tubes were then centrifuged at 12,000 rpm and the supernatant dried under N2 for 2-3 hours. Dried extract was re-suspended in 60 μL hexane and loaded onto TLC plates (pre-coated with 10% AgNO3 in acetonitrile). The TLC plates were placed into glass running chamber containing 200 mL running solution (100 mL running solution: 92.5 mL chloroform, 6 mL methanol, 750 μL acetic acid, 750 μL dH2O). After running, the TLC plates were air dried and scanned on Bioscan AR-2000 for quantification of ^14C-palmitioleate and ^14C-palmitate peaks. Area under the curve of the peaks were used to calculate product/substrate ratio, an index of SCD1 activity.

SCD1 [2] = target: SCD1 (Rattus norvegicus (Rat), UniProt P07308); assay: SCD1 enzymatic assay in rat liver microsomes (RLM); type: biochemical; settings: for inhibition at 1 µM / % Inh. @ 1 μM: 1 μM test compound
Protocol: Step 1: Preparation of Rat Liver Microsome (RLM)
Sprague Dawley rats from Charles River (200-225 g) underwent 2-cycle of fast-re-feeding (24-hour fast followed by 24-hour feeding with fat-free high carbohydrate diet, Research Diet, D00042802). The livers were removed and homogenized 1:4 (w/v) with pre-chilled, homogenizing buffer (10 mM Tris-HCl, 0.25 M sucrose, 1 mM EDTA, pH 7.4, supplemented with protease inhibitor cocktail). The homogenate was spun at 12,000×g for 15 min at 4° C. The supernatant was then re-centrifuged at 100,000×g for 60 min at 4° C. The pellet was re-suspended in 2 ml pre-chilled […] potassium phosphate buffer, pH 7.2, 10 mM EDTA at a concentration of 20 mg/ml. The resulting rat liver microsome (RLM) preparation was stored at […].
Step 2: SCD1 Enzymatic Assay in RLM:
The SCD1 enzymatic assay was done in a volume of 50 μL using 10 μg of RLM (prepared as described above) in a 96-well polypropylene plate (enzyme reaction buffer contains 0.1 M K-Phosphate Buffer, 10 mM ATP, 6 mM MgCl2, 1 mM CoA, 1 mM β-NADH, 1.6 mM L-glutathione, 20 μM Stearoyl-CoA). Stearoyl-[9,10-^3H]—CoA (ARC-0390, 1 mCi/mL, 60 Ci/mmol,) was added at a final concentration of 2 μCi/mL. Test compound was then added to the reaction mixture at the selected concentration. After incubation at room temperature for 2 hours, 5 μL 1 N HCl was added to stop the reaction, followed by addition of 25 μL of 10% charcoal. The reaction mixture was then transferred to 96-well Multiscreen plate (Millipore, Cat# MSFCN6B50). [^3H2O] was collected into Opti-plate (PE, Cat #6005290) by centrifuge, at 1,000 rpm for 2 minutes. 150 μL Microscint 40 (PE, cat #6013641) was then added to each well and counted on Topcount for [^3H] counts per minute (cpm). The measured cpm values were fitted with Sigmoidal dose-response curve fit with Graphpad Prism.

SCD1 [3] = target: T1, SCD1; assay: SCD1 13C-palmitic acid assay in A431 cells; type: cell-based; settings: read-out: A431 cells 13C-PA IC50
Protocol: Human epithelial carcinoma A431 cells were seeded at 100,000 cells/well in complete growth medium (DMEM, Cellgro #10-013-CM, 4.5 g/L glucose, 10% FBS) in the presence of 0.05 mg/mL human insulin (Hannas Pharmaceutical Supply Co Inc, Humanlin 100 U/ml, 4 mg/ml) in 96-well tissue culture plate. […] The cells were then returned to the tissue culture incubator (37° C. and 5% CO2) for 4 hrs. At the end of incubation, the cells were washed three times with 200 μL/well Hanks buffer (HBSS) and then stored at −20° C. until extraction.
For fatty acid extraction, after thawing out the plates, 40 μL of 1N KOH (containing 5 μM of internal standard 7,7,8,8-D4 palmitate) was added to each well and cell plates were incubated at 37° C. for 30 minutes. […] Acetonitrile (100 μL) was then added to extract fatty acids, followed by centrifugation at 3000 rpm for 10 minutes. 75 μL of extract was then transferred to a new glass vial in a 96-well cluster plate. 5 μL was injected for LC/MS analysis for detection of ^13C-palmitic acid and ^13C-palmitoleic acid. Formation of product ^13C-palmitoleic acid was determined as an index of SCD1 activity.
LC/MS analysis was performed as following. An Agilent 1100 Liquid Chromatographic System (Palo Alto, Calif.) consisting of a binary pump, a degasser and an autosampler was used. Separation of free fatty acids was performed on a Zorbax SB—C8 column (2.1×50 mm, particle size=3.5 μm). An isocratic elution was carried out with 10 mM triethylamine acetate in water:acetonitrile (3:7) at a flow rate of 0.3 mL/min. The column temperature was set at 30° C. and the sample injection volume was 5 μL. The LC run cycle was 4 min, A Micromass triple-quadrupole Quattro Micro mass […] (Waters, Beverly, Mass.) was interfaced with the LC system through a Z-spray electrospray ion source and was operated in the negative ion mode. Nitrogen was used as nebulizing gas, desolvation gas and cone curtain gas and argon was chosen as collision gas. The triple quadrupole MS source parameters were set as follows: capillary voltage, 3200V; cone voltage, 25V; extractor 2V, source temperature, 120° C.; desolvation temperature, 300° C.; cone gas flow, 50 L/h; and desolvation gas flow, 700 L/h. […] MassLynx software version 4.0 was used for system control and data processing. The signal of U—^13C-palmitoleic acid was normalized to an internal standard.

Chain of SCD1 (Rattus norvegicus (Rat), UniProt P07308) (P07308 whole entry): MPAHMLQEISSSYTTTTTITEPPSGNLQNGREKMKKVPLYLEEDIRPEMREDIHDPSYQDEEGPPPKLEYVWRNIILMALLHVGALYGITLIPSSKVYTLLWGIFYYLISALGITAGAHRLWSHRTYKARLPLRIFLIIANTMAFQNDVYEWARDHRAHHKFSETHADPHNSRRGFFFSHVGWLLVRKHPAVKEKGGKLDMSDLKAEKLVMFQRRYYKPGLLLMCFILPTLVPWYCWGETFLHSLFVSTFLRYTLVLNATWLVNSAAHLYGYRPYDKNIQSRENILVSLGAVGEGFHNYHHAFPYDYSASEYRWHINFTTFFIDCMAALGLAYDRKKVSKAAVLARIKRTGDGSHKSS
T1 sequence (O00767 whole entry): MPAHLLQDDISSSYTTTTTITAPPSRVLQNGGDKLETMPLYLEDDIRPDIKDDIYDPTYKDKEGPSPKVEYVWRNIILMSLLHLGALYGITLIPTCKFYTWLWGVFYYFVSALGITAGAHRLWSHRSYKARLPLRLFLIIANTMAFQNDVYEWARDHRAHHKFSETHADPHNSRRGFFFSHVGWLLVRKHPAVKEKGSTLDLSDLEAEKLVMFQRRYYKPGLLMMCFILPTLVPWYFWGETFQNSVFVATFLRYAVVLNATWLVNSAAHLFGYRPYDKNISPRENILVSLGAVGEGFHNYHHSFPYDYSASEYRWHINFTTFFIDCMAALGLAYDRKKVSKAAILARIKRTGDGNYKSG

Row | IC50 (SCD1 [1]) | IC50 (SCD1 [2]) | inhibition at 1 µM (SCD1 [2]) [%] | % Inh. @ 1 μM (SCD1 [2]) | IC50 (SCD1 [3]) | Compound
1 |  | 8 nM | 102 |  | 6 nM | O=C(Nc1ncc(CCO)s1)N1CCC(N2CCc3ccc(F)cc32)CC1 [Compound 50, 4-(6-fluoroindolin-1-yl)-N-(5-(2-hydroxyethyl)thiazol-2-yl)piperidine-1-carboxamide]
2 |  | 29 nM | 95 |  | 38 nM | O=C(Nc1nc(CCO)cs1)N1CCC(c2noc3ccc(F)cc23)CC1 [Compound 54, 4-(5-fluorobenzo[d]isoxazol-3-yl)-N-(4-(2-hydroxyethyl)thiazol-2-yl)piperidine-1-carboxamide]
3 |  | 11 nM | 92 |  | 30 nM | O=C(Nc1ncc(CCO)s1)N1CCC(c2noc3ccc(F)cc23)CC1 [Compound 55, 4-(5-fluorobenzo[d]isoxazol-3-yl)-N-(5-(2-hydroxyethyl)thiazol-2-yl)piperidine-1-carboxamide]
4 |  | 39 nM | 98 |  | 1 nM | O=C(Nc1nc2c(s1)CC(O)CC2)N1CCC(c2noc3ccc(F)cc23)CC1 (centres unmarked) [Compound 60, 4-(5-fluorobenzo[d]isoxazol-3-yl)-N-(6-hydroxy-4,5,6,7-tetrahydrobenzo[d]thiazol-2-yl)piperidine-1-carboxamide]
5 |  | 204 nM | 99 |  | 17 nM | O=C(Nc1nc2c(s1)COCC2)N1CCC(N2CCc3ccc(F)cc32)CC1 [Compound 61, N-(6,7-dihydro-4H-pyrano[4,3-d]thiazol-2-yl)-4-(6-fluoroindolin-1-yl)piperidine-1-carboxamide]
6 |  | 347 nM | 68 |  | 76 nM | O=C(Nc1nc2c(s1)CCCC2)N1CCC(N2CCc3ccc(F)cc32)CC1 [Compound 62, 4-(6-fluoroindolin-1-yl)-N-(4,5,6,7-tetrahydrobenzo[d]thiazol-2-yl)piperidine-1-carboxamide]
7 |  | 85 nM | 55 |  | 176 nM | O=C(Nc1nc2c(s1)COCC2)N1CCC(c2noc3ccc(F)cc23)CC1 [Compound 63, N-(6,7-dihydro-4H-pyrano[4,3-d]thiazol-2-yl)-4-(5-fluorobenzo[d]isoxazol-3-yl)piperidine-1-carboxamide]

Further lines, the molecule ahead of its results:

Row | Compound | IC50 (SCD1 [1]) | IC50 (SCD1 [2]) | inhibition at 1 µM (SCD1 [2]) [%] | % Inh. @ 1 μM (SCD1 [2]) | IC50 (SCD1 [3])
8 | CNC(=O)c1cccc(NC(=O)N2CCC(n3ccc4ccccc43)CC2)c1 [Compound 2, 4-(1H-indol-1-yl)-N-(3-(methylcarbamoyl)phenyl)piperidine-1-carboxamide] | 376 nM and 384 nM | 170 nM | 84 |  | 
9 | Cc1csc(NC(=O)N2CCC(N3CCc4ccccc43)CC2)n1 [Compound 3, 4-(indolin-1-yl)-N-(4-methylthiazol-2-yl)piperidine-1-carboxamide] | 804 nM and 379 nM | 161 nM and 145 nM | 70 | 76% | 
10 | Cc1csc(NC(=O)N2CCC(n3ccc4ccccc43)CC2)n1 [Compound 4, 4-(1H-indol-1-yl)-N-(4-methylthiazol-2-yl)-piperidine-1-carboxamide] | 209 nM and 325 nM | 573 nM and 502 nM | 70 |  | 
11 | CNC(=O)c1cccc(NC(=O)N2CCC(c3noc4ccc(F)cc34)CC2)c1 [Compound 5] | 711 nM and 726 nM | 413 nM | 74 |  | 
12 | O=C(CO)N1CCc2nc(NC(=O)N3CCC(N4CCc5ccc(F)cc54)CC3)sc2C1 [Compound 35, 4-(6-fluoroindolin-1-yl)-N-(5-(2-hydroxyacetyl)-4,5,6,7-tetrahydrothiazolo[5,4-c]pyridin-2-yl)piperidine-1-carboxamide] |  | 96 nM | 92 |  | 113 nM
13 | O=C(Nc1nc2c(s1)CNCC2)N1CCC(N2CCc3ccc(F)cc32)CC1 [Compound 36, 4-(6-fluoroindolin-1-yl)-N-(4,5,6,7-tetrahydrothiazolo[5,4-c]pyridin-2-yl)piperidine-1-carboxamide] |  | 29 nM | 91 |  | 16 nM
14 | O=C1NCCn2nc(NC(=O)N3CCC(N4CCc5ccc(F)cc54)CC3)cc21 [Compound 37, 4-(6-fluoroindolin-1-yl)-N-(4-oxo-4,5,6,7-tetrahydropyrazolo[1,5-a]pyrazin-2-yl)piperidine-1-carboxamide] |  | 14 nM and 22 nM | 95 | 89% | 30 nM
15 | O=C(Nc1nc2c(s1)CN(CCO)CC2)N1CCC(N2CCc3ccc(F)cc32)CC1 [Compound 38, 4-(6-fluoroindolin-1-yl)-N-(5-(2-hydroxyethyl)-4,5,6,7-tetrahydrothiazolo[5,4-c]pyridin-2-yl)piperidine-1-carboxamide] |  | 770 nM |  |  | 440 nM
16 | NC(=O)c1cccc(NC(=O)N2CCC(n3ncc4c(F)cccc43)CC2)c1 [Compound 39, N-(3-carbamoylphenyl)-4-(4-fluoro-1H-indazol-1-yl)piperidine-1-carboxamide] |  | 88 nM and 59 nM | 86 | 86, 86% | 288 nM and 149 nM
17 | O=C(Nc1cccc(CO)c1)N1CCC(N2CCc3ccc(F)cc32)CC1 [Compound 43, 4-(6-fluoroindolin-1-yl)-N-(3-(hydroxymethyl)phenyl)piperidine-1-carboxamide] |  | 322 nM | 61 |  | 161 nM
18 | O=C1OCc2ccc(NC(=O)N3CCC(N4CCc5ccc(F)cc54)CC3)cc21 [Compound 47, 4-(6-fluoroindolin-1-yl)-N-(3-oxo-1,3-dihydroisobenzofuran-5-yl)piperidine-1-carboxamide] |  | 17 nM | 83 |  | 27 nM
